Experimental data published in US10316348B2, “Diagnostic system and process for rapid bacterial infection diagnosis” (priority 2014, dated 2019).
Where “and” joins values, the source holds several entries; their conditions need not be identical. Equal values may be shown once.

Assays:
[1] = system: P. aeruginosa strain PA14 biofilms; assay: Square wave voltammetry of pyocyanin produced by PA14 biofilms in a microfluidic growth chamber during antibiotic exposure; assay type: cell-based, Pseudomonas aeruginosa
Procedure: P. aeruginosa strain PA14 and m-cherry Escherichia coli strain K12 were used for all antibiotic tests performed. Trypticase soy broth (BD 211768) was used as the nutrient source for all bacteria grown in these tests. Colistin sulfate (Adipogen AG-CN2-0065-G001) was dissolved in trypticase soy broth (TSB) at 1 g/L and used as a stock solution. When not in use, the stock solution was stored at 4° C. Polydimethylsiloxane (Ellsworth Adhesives 184 Sil. Elast. Kit 0.5 kg) was used to prepare all microfluidic devices. Disposable three electrode cells (Zensor TE100) were used for all measurements in this study. The electrochemical cells consist of carbon working and counter electrodes with a Ag/AgCl paste reference electrode. Tubing and luer lock fittings for microfluidic connections were purchased from Amazon Supply (B001GMWZM) and Value Plastic (MTLL230). To prevent bacteria from leaving the microfluidic growth chambers, Minisart RC4 0.2 micron regenerated cellulose luer lock syringe filters (17821K) were attached to the inlets and outlets of the devices via 19 gauge luer lock syringes (NE192PL-25). A syringe pump (Harvard Apparatus Fusion 200 211097) was used to control the flow rate of growth media and antibiotic through the microfluidic chamber. Electrochemical measurements were made using a multipotentiostat (CHI 1040C A2728).
Polydimethylsiloxane (PDMS) wells were fabricated from 9 mm×9 mm tape molds made on glass slides (3M Scotch Tape, tape thickness ≈50 μm) using a standard method. […] Inlets and outlets in the wells were drilled and the resulting microfluidic devices were fabricated by irreversibly bonding PDMS to the disposable electrochemical cells using air plasma (Anatech SP-100, 5-7 s at 100 W). The microfluidic channels were filled with trypticase soy broth (TSB) at a flow rate of 10 μL/min. To facilitate complete filling of the chamber (removal of air bubbles), an empty syringe was attached to the outlet. By pulling and releasing vacuum on the outlet, TSB was pulled through the chamber displacing any air bubbles.
For antibiotic testing, cultures of PA14 and E. coli were grown over night in 3 mL of TSB (concentration approximately […]). After overnight growth, samples were centrifuged for 3 min at 10,000 rpm. The supernatant was discarded and the cultures were reconstituted in 3 mL of fresh TSB. After removing the inlet syringe filter, approximately 24 μL of reconstituted cell culture was loaded into the growth chamber at a flow rate of 10 μL/min. […] After overnight growth, flow at 0.1 μL/min was initiated with either TSB or colistin sulfate in TSB and the electrochemical response was monitored. […]

PA14 cells = assay: Live cell counts (LIVE/DEAD stain, haemocytometer) of biofilm removed from the device after antibiotic exposure; assay type: cell-based, Pseudomonas aeruginosa; details: PA14 biofilm exposed to 100 mg/L colistin sulfate, compared to 0 and 4 mg/L
Procedure: Cell viability after exposure to colistin sulfate was assessed using a LIVE/DEAD staining kit (EMD Chemicals Millipore 50-231-0606). Stains were prepared per manufacturer's operating procedure. After staining, 10 μL of sample was injected into an INCYTO C-chip disposable hemocytometer (DHC-N01). Cells were imaged using a fluorescence microscope, and the number of PA14 cells that were alive after exposure was determined using IMAGE J (ImageJ, U.S. National Institutes of Health, Bethesda, Md., USA, http://imagej.nih.gov/ij/).
The number of living cells measured after exposure to three different concentrations of colistin sulfate were compared (FIG. 11B). After the biofilm was exposed to antibiotic in the device, the PDMS chambers were peeled off and 100 μL of fresh TSB was spotted on the biofilm and pipetted vigorously to remove material from the surface of the electrode. Removed samples were used to measure live cell counts, performed with Millipore 3P Live/Dead Stain, using a haemocytometer. […] A concentration of approximately 4×10^5 live cells/mL was measured in the biofilms not exposed to colistin sulfate. […] A statistically significant reduction in the number of live PA14 cells was measured for samples exposed to 100 mg/L colistin sulfate compared to cells exposed to 0 and 4 mg/L colistin sulfate. […]

PA14 [2] = assay: Regrowth on TSB agar plates of cells taken from PDMS chambers after colistin sulfate exposure; assay type: cell-based, Pseudomonas aeruginosa; details: TSB plate
Procedure: FIG. 12 illustrates PA14 exposed to 100 mg/L and 4 mg/L colistin sulfate for 20 hours within PDMS chambers then spotted onto TSB plates. Photographs of a plate after incubation at 37° C. for A) 4.3 h, B) 6.5 h, and C) 74.3 h (removed from the incubator after 24 h to avoid drying and grown at room temperature (≈23° C.)). Arrows highlight the locations of the first observed PA14 colonies. A vertical line divides the areas on the plate where PA14 exposed to 100 mg/L (left) and 4 mg/L (right) colistin sulfate were spotted.
FIG. 22 illustrates PA14 streaked onto TSB after exposure to 100 mg/L and 4 mg/L colistin for 20 hours within PDMS flow chambers. Photographs show the plate after A) 4.33 h, B) 6.5 h, and C) 74.3 h of incubation. The plate was incubated at 37° C. for the first 24 hours, then grown at room temperature for the remaining time to prevent the agar from drying out.
The qualitative results of the live cell stain are consistent with the culture plate experiments. The live cell concentration in biofilms exposed to 100 mg/L colistin sulfate (FIG. 11B), however, is higher than expected when compared to the reduced rate of colony formation on agar plates (FIG. 12).
Regarding FIG. 22, after exposure to colistin sulpahte at 4 and 100 mg/L flowing at 100 nL/min, the PDMS chambers were peeled from the disposable electrodes. […] Samples were incubated at 37° C., and monitored for growth. […]

PA14 [3] = assay: Growth of liquid PA14 cultures plated on cetrimide agar plates containing colistin sulfate; assay type: cell-based, Pseudomonas aeruginosa
Procedure: FIG. 21 illustrates images of PA14 colonies after 20 hours of growth at 37° C. on cetrimide agar plates mixed with different concentrations of colistin sulfate.
Regarding FIG. 21, liquid cultures of PA14, grown over night in 3 mL of TSB, were plated directly onto cetrimide agar plates containing 0, 4, and 100 mg/L of colistin sulfate. These plates were incubated overnight at 37° C. The plates were then inspected for bacterial growth (FIG. 21).

P. aeruginosa = details: literature value, cited from earlier work

| Compound | effect on PYO production (SWV response) ([1]; PA14 exposed to 100 mg/L ampicillin in TSB under flow) | average response (peak current, PYO production) compared to biofilms exposed to only TSB ([1]; PA14 biofilm exposed to 4 mg/L colistin sulfate, ANOVA) | average percent decrease in the maximum peak current at the end of testing ([1]; PA14 biofilm exposed to 100 mg/L colistin sulfate in TSB, flow 100 nL/min, compared to control cells) | average peak current compared against the control (ANOVA) ([1]; PA14 exposed to 16 and 100 mg/L colistin sulfate, P<0.05) | reduction in the number of living cells (PA14 cells) | incubation time after which growth (visible colonies) was observed (PA14 [2]; cells exposed to 4 mg/L colistin sulfate for 20 hours in chambers, 37° C.) | growth after 6.5 h of incubation (PA14 [2]; cells exposed to 100 mg/L colistin sulfate for 20 hours in chambers) | bacterial growth on plate after overnight incubation at 37° C. (PA14 [3]; cetrimide agar containing 4 mg/L colistin sulfate) | bacterial growth on plate after overnight incubation at 37° C. (PA14 [3]; cetrimide agar containing 100 mg/L colistin sulfate) | reported MIC (High MIC) (P. aeruginosa; higher MIC) | reported MIC (low MIC) (P. aeruginosa; lower MIC) |
| --- | --- | --- | --- | --- | --- | --- | --- | --- | --- | --- | --- |
| CC1(C)S[C@@H]2[C@H](NC(=O)[C@H](N)c3ccccc3)C(=O)N2[C@H]1C(=O)O [ampicillin] | no effect on PYO production |  |  |  |  |  |  |  |  |  |  |
| colistin sulfate |  | no significant difference | ~82% | significantly lower | ~2 × | 4.3 h and 4 h | No growth was observed | showed growth | showed no colony formation | 16 µg/mL | 4 µg/mL |
